The record followed here is patent publication US10913727B2, “Modulators of the integrated stress pathway” (Calico Life Sciences LLC, priority 2016, dated 2021).

In general, EC50 refers to the concentration at which the effect is half-maximal.

The test deals with HEK293T cells carrying the ATF4 luciferase reporter. Description: ATF4-Luc assay, in vitro model of Vanishing Cell White Matter Disease (VWMD). The test is classed as cell-based. As to conditions: Homo sapiens, HEK-293T, 1 μg/mL tunicamycin, 7 hours, One Glo luminescence. The method, boiled down:
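Compound at 200 nM and tunicamycin at 1 μg/mL were given together for 7 h to HEK293T cells stably transduced with an ATF4 5′-UTR-driven firefly luciferase reporter. Read-out by luminescence, reported as EC50.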
On to `Cc1noc(C(=O)NC23CCC(NC(=O)COc4ccc(Cl)c(F)c4)(CC2)C(O)C3)n1` (stereo not drawn) [Compound 503, N-{4-[2-(4-chloro-3-fluorophenoxy)acetamido]-3-hydroxybicyclo[2.2.2]octan-1-yl}-3-methyl-1,2,4-oxadiazole-5-carboxamide], for which the concentration for a half-maximal effect (EC50) fell in the range of 50 to 250 nM.

Consider `O=C(COc1ccc(Cl)c(F)c1)NC12CC(NC(=O)c3coc(C(F)(F)F)c3)(C1)C2` [Compound 544, N-{3-[2-(4-chloro-3-fluorophenoxy)acetamido]bicyclo[1.1.1]pentan-1-yl}-5-(trifluoromethyl)furan-3-carboxamide], for which the 50% effective concentration (EC50) was < 50 nM.

In the case of `Cn1c(=O)n(C)c2cc(C(=O)NC34CC(NC(=O)COc5ccc(Cl)c(F)c5)(C3)C4)ccc21` [Compound 776, N-{3-[2-(4-chloro-3-fluorophenoxy)acetamido]bicyclo[1.1.1]pentan-1-yl}-1,3-dimethyl-2-oxo-2,3-dihydro-1H-benzimidazole-5-carboxamide], the EC50 was > 2000 nM.

For `CCOc1cc(C)nc(NC23CC(NC(=O)COc4ccc(Cl)c(F)c4)(C2)C3)n1` [Compound 383, 2-(4-chloro-3-fluorophenoxy)-N-{3-[(4-ethoxy-6-methylpyrimidin-2-yl)amino]bicyclo[1.1.1]pentan-1-yl}acetamide], the concentration giving a half-maximal response (EC50) is > 2000 nM.

As to `O=C(COc1ccc(Cl)c(F)c1)NC12CCC(NC(=O)c3cc(-c4c(F)cccc4F)no3)(CC1)CC2O` (stereo not drawn) [Compound 409, N-{4-[2-(4-chloro-3-fluorophenoxy)acetamido]-3-hydroxybicyclo[2.2.2]octan-1-yl}-3-(2,6-difluorophenyl)-1,2-oxazole-5-carboxamide], the half-maximal effective concentration (EC50) fell in the range of 50 to 250 nM.

`CCc1cc(C(=O)NC23CCC(NC(=O)COc4ccc(Cl)c(F)c4)(CC2)C(O)C3)on1` (stereo not drawn) [Compound 515, N-{4-[2-(4-chloro-3-fluorophenoxy)acetamido]-3-hydroxybicyclo[2.2.2]octan-1-yl}-3-ethyl-1,2-oxazole-5-carboxamide]: the concentration giving a half-maximal response (EC50) is < 50 nM.

`Cc1cncc(C(=O)NC23CC(NC(=O)COc4ccc(Cl)c(F)c4)(C2)C3)n1` [Compound 650, N-{3-[2-(4-chloro-3-fluorophenoxy)acetamido]bicyclo[1.1.1]pentan-1-yl}-6-methylpyrazine-2-carboxamide]: the half-maximal effective concentration (EC50) was in the range of 50 to 250 nM.

Take `CC(C)(C)[Si](C)(C)OCCOc1ccc(C(=O)NC23CC(NC(=O)COc4ccc(Cl)c(F)c4)(C2)C3)cn1` [Compound 157, 6-(2-{[tert-butyl(dimethyl)silyl]oxy}ethoxy)-N-{3-[2-(4-chloro-3-fluorophenoxy)acetamido]bicyclo[1.1.1]pentan-1-yl}pyridine-3-carboxamide]: the EC50 is > 2000 nM.

Regarding `CCCc1ncc(C(=O)NC23CC(NC(=O)COc4ccc(Cl)c(F)c4)(C2)C3)s1` [Compound 293, N-{3-[2-(4-chloro-3-fluorophenoxy)acetamido]bicyclo[1.1.1]pentan-1-yl}-2-propyl-1,3-thiazole-5-carboxamide], the EC50 is < 50 nM.

With `Cc1cc(C(=O)NC23CCC(NC(=O)COc4ccc(F)c(F)c4)(CC2)C(O)C3)on1` (stereo not drawn) [Compound 462, N-{4-[2-(3,4-difluorophenoxy)acetamido]-3-hydroxybicyclo[2.2.2]octan-1-yl}-3-methyl-1,2-oxazole-5-carboxamide], the EC50 was 250 to 1000 nM.

Turning to `O=C(COc1ccc(Cl)c(F)c1)NC12CCC(NC(=O)c3ccno3)(CC1)C(O)C2` (stereo not drawn) [Compound 215, N-{4-[2-(4-chloro-3-fluorophenoxy)acetamido]-2-hydroxybicyclo[2.2.2]octan-1-yl}-1,2-oxazole-5-carboxamide], the EC50 is 50 to 250 nM.

`CC(C)(C)OC(=O)NCc1ccnc(C(=O)NC23CC(NC(=O)COc4ccc(Cl)c(Cl)c4)(C2)C3)c1` [Compound 580, tert-butyl {[2-({3-[2-(3,4-dichlorophenoxy)acetamido]bicyclo[1.1.1]pentan-1-yl}carbamoyl)pyridin-4-yl]methyl}carbamate]: the 50% effective concentration (EC50) was > 2000 nM.
